This note sets out measurements from article PMC6934184, “Selective DNA-PKcs inhibition extends the therapeutic index of localized radiotherapy and chemotherapy” (The Journal of Clinical Investigation, 2019).

For orientation: inhibition means the share of the control response that was lost under treatment. A low value points to little suppression.

The target in this assay is T1, RET (Homo sapiens, UniProt P07949).
T1 construct: purchased Thermo Fisher Scientific (Life Technologies) SelectScreen
T1 sequence (P07949 29-1114): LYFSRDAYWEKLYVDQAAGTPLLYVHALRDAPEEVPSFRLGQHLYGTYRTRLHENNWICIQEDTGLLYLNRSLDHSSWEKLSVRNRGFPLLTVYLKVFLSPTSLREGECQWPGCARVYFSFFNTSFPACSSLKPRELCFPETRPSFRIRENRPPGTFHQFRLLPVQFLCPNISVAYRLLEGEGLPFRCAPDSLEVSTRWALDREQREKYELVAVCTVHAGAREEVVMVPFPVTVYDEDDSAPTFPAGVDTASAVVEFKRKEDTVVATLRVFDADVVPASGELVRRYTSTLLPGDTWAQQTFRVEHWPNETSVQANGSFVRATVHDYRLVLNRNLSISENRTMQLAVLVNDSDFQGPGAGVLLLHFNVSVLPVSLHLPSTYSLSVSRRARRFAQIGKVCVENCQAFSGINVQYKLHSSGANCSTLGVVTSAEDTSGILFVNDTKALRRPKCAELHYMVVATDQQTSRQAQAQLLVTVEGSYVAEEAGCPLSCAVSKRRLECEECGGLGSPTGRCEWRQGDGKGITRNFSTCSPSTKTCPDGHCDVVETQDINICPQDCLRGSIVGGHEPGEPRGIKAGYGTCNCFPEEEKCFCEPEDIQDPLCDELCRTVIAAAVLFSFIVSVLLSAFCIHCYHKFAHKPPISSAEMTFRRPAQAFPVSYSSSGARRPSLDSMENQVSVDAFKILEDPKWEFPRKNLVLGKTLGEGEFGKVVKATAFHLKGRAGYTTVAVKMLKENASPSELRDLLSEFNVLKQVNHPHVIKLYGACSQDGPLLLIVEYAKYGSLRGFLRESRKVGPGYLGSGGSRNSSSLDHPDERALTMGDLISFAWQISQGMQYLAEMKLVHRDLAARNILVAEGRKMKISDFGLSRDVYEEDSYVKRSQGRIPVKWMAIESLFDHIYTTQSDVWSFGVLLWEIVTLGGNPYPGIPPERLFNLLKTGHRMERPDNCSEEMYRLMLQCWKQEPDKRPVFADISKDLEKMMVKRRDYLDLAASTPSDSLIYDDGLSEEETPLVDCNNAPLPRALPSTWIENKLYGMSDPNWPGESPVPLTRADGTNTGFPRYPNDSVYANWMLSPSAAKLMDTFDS
The experiment in a line: SelectScreen Z'LYTE. It counts as biochemical. In short, it runs like this: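 NU5455 was profiled across the SelectScreen Broad panel of kinase activity and binding assays. Z'LYTE reactions such as CSF1R ran at apparent Km ATP, while the Adapta CAMK1 assay used ATP listed as 10. Values are given as percent.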

The structures appear in SMILES notation.

The compound `CN(C(=O)CN1CCOCC1)c1ccc2sc3c(-c4cccc5c(=O)cc(N6CC7CCC(C6)O7)oc45)cccc3c2c1` [NU5455] came in with an inhibition at 1 µM of 5.2%.
